In ChEMBL document CHEMBL3758123, “Synthesis, biological evaluation and molecular modeling study of some new thiazolodiazepine analogs as CNS active agents” (Bioorg Med Chem Lett, 2016):
Activity calls are given as the source filed them. The rule behind the calls is not given here.

Assays:
Mus musculus [1] = test: Anticonvulsant activity in Swiss albino mouse assessed as pentylenetetrazole induced onset of convulsion time at 200 mg/kg, ip administered for 20 mins followed by pentylenetetrazole challenge; format: functional
Mus musculus [2] = test: Anticonvulsant activity in Swiss albino mouse assessed as pentylenetetrazole induced convulsions frequency time at 200 mg/kg, ip administered for 20 mins followed by pentylenetetrazole challenge; format: functional
Mus musculus [3] = test: Toxicity in pentylenetetrazole induced Swiss albino mouse convulsion model assessed as time of death at 200 mg/kg, ip administered for 20 mins followed by pentylenetetrazole challenge; format: organism-based; details: in vivo
Mus musculus [4] = test: Anticonvulsant activity in Swiss albino mouse assessed as picrotoxin-induced onset of convulsion time at 200 mg/kg, ip administered for 30 mins followed by picrotoxin challenge; format: functional
Mus musculus [5] = test: Anticonvulsant activity in Swiss albino mouse assessed as picrotoxin-induced convulsions frequency time at 200 mg/kg, ip administered for 30 mins followed by picrotoxin challenge; format: functional
Mus musculus [6] = test: Toxicity in picrotoxin-induced Swiss albino mouse convulsion model assessed as time of death at 200 mg/kg, ip administered for 30 mins followed by picrotoxin challenge; format: organism-based; details: in vivo, 0.5 h
Mus musculus [7] = test: Hypnotic activity in mouse assessed as quietness at 200 mg/kg, ip after 20 mins; format: functional, organism-based
Mus musculus [8] = test: Hypnotic activity in mouse assessed as calmness at 200 mg/kg, ip after 20 mins; format: functional, organism-based
Mus musculus [9] = test: Hypnotic activity in mouse assessed as muscle relaxation at 200 mg/kg, ip after 15 mins; format: functional, organism-based
Mus musculus [10] = test: Anticonvulsant activity in Swiss albino mouse assessed as pentylenetetrazole induced onset of convulsion time at 100 mg/kg, ip administered for 20 mins followed by pentylenetetrazole challenge; format: functional
Mus musculus [11] = test: Anticonvulsant activity in Swiss albino mouse assessed as pentylenetetrazole induced convulsions frequency time at 100 mg/kg, ip administered for 20 mins followed by pentylenetetrazole challenge; format: functional
Mus musculus [12] = test: Toxicity in pentylenetetrazole induced Swiss albino mouse convulsion model assessed as time of death at 100 mg/kg, ip administered for 20 mins followed by pentylenetetrazole challenge; format: organism-based; details: in vivo
Mus musculus [13] = test: Anticonvulsant activity in Swiss albino mouse assessed as protection against pentylenetetrazole-induced seizure at 200 mg/kg, ip administered for 20 mins followed by pentylenetetrazole challenge; format: functional
Mus musculus [14] = test: Anticonvulsant activity in Swiss albino mouse assessed as protection against maximal electroshock-induced seizures at 200 mg/kg, ip administered for 30 mins followed by electric shock treatment; format: functional
Mus musculus [15] = test: Protective index, ratio of TD50 for Swiss albino mouse assessed as motor performance to ED50 for protection against pentylenetetrazole-induced seizure in ip dosed Swiss albino mouse; format: functional
Mus musculus [16] = test: Anticonvulsant activity in ip dosed Swiss albino mouse assessed as protection against maximal electroshock-induced seizures administered for 30 mins followed by electric shock treatment; format: functional; details: 0.5 h
Mus musculus [17] = test: Protective index, ratio of TD50 for Swiss albino mouse assessed as motor performance to ED50 for protection against maximal electroshock-induced seizure in ip dosed Swiss albino mouse; format: functional
Mus musculus [18] = test: Protective index, ratio of TD50 for Swiss albino mouse assessed as motor performance to ED50 for protection against picrotoxin-induced seizure in ip dosed Swiss albino mouse; format: functional
[19] = Therapeutic index, ratio of LD50 for ip dosed Swiss albino mouse to ED50 for protection against pentylenetetrazole induced seizure in ip dosed Swiss albino mouse; format: organism-based; details: in vivo, read-out: Ratio LD50/ED50
Mus musculus [20] = test: Potency index, ratio of compound activity to sodium valproate activity against pentylenetetrazole-induced seizure in ip dosed Swiss albino mouse; format: functional
Mus musculus [21] = test: Hypnotic activity in mouse assessed as decrease in locomotors activity at 200 mg/kg, ip after 20 mins; format: functional, organism-based
Mus musculus [22] = test: Anticonvulsant activity in Swiss albino mouse assessed as protection against pentylenetetrazole-induced seizure at 100 mg/kg, ip after 20 mins; format: functional
Mus musculus [23] = test: Anticonvulsant activity in Swiss albino mouse assessed as protection against maximal electroshock-induced seizures at 100 mg/kg, ip administered for 30 mins followed by electric shock treatment; format: functional
Mus musculus [24] = test: Hypnotic activity in mouse assessed as loss of righting reflex and sleep at 100 mg/kg, ip after 2 mins; format: functional, organism-based
Mus musculus [25] = test: Hypnotic activity in mouse assessed as decrease in locomotors activity at 100 mg/kg, ip after 20 mins; format: functional, organism-based
Mus musculus [26] = test: Hypnotic activity in mouse assessed as calmness at 100 mg/kg, ip after 20 mins; format: functional, organism-based
Mus musculus [27] = test: Hypnotic activity in mouse assessed as loss of righting reflex and sleep at 200 mg/kg, ip after 20 mins; format: functional, organism-based

In the case of `COc1ccc(/C=C2\CCN3C(C)=CSC3=NC2=O)cc1`, the Time (Mus musculus [1]) is reported as 2.3 min, the Time (Mus musculus [2]) is reported as 1.9 min and the Time (Mus musculus [3]) is reported as 5.1 min. For the same compound, the Time (Mus musculus [4]) was 11.3 min, the Time (Mus musculus [5]) was 9.5 min and the Time (Mus musculus [6]) was 20.7 min. The Activity (Mus musculus [7]) was “Active”.

With `CC1=CSC2=NC(=O)/C(=C/c3ccc(Br)cc3)CCN12` the Time (Mus musculus [1]) was 2.1 min, the Time (Mus musculus [2]) was 2 min and the Time (Mus musculus [3]) was 3.6 min. It also gave a Time (Mus musculus [4]) of 12.5 min, a Time (Mus musculus [5]) of 2.5 min and a Time (Mus musculus [6]) of 19.5 min. For the same compound, the Activity (Mus musculus [7]) was “Active”.

In the case of `CCOC(=O)C1=C(C)N2CC/C(=C\c3ccc(OC)cc3)C(=O)N=C2S1`, the Time (Mus musculus [1]) is reported as 2.2 min, the Time (Mus musculus [2]) is reported as 2.3 min and the Time (Mus musculus [3]) is reported as 3.7 min. For the same compound, the Time (Mus musculus [4]) was 9.1 min, the Time (Mus musculus [5]) was 11.1 min and the Time (Mus musculus [6]) was 18.3 min.

For `CCOC(=O)C1=C(C)N2CCCC(=O)N=C2S1`, the Activity (Mus musculus [8]) was “Active”, the Activity (Mus musculus [9]) was “Active” and the Time (Mus musculus [10]) was 4.6 min. The Time (Mus musculus [11]) was 2 min, the Time (Mus musculus [12]) was 6.3 min and the Activity (Mus musculus [13]) was 100%. For the same compound, the Activity (Mus musculus [14]) was 100%, the “Ratio TD50/ED50” value (Mus musculus [15]) was 1.57 and the ED50 (Mus musculus [16]) was 90 mg/kg. The “Ratio TD50/ED50” value (Mus musculus [17]) was 2.22, the “Ratio TD50/ED50” value (Mus musculus [18]) was 1.35 and the selectivity ratio [19] was 5.28. For the same compound, the Ratio (Mus musculus [20]) was 2 and the Activity (Mus musculus [21]) was “Active”.

In the case of `COc1ccc(/C=C2\CCN3C=C(C)SC3=NC2=O)cc1`, the Activity (Mus musculus [8]) is reported as “Active”, the Time (Mus musculus [1]) is reported as 4.1 min and the Time (Mus musculus [2]) is reported as 5.3 min. The Time (Mus musculus [3]) was 27.3 min, the Time (Mus musculus [4]) was 10.1 min and the Time (Mus musculus [5]) was 3 min. It also gave a Time (Mus musculus [6]) of 8.1 min.

Compound `CC1=CN2CCCC(=O)N=C2S1` has a Time (Mus musculus [1]) of 4.1 min, a Time (Mus musculus [2]) of 3.1 min and a Time (Mus musculus [3]) of 5.2 min. For the same compound, the Time (Mus musculus [4]) was 7.1 min, the Time (Mus musculus [5]) was 8.7 min and the Time (Mus musculus [6]) was 10.1 min. The Activity (Mus musculus [7]) was “Active”.

Compound `CC1=CSC2=NC(=O)CCCN12` has a Time (Mus musculus [1]) of 1.5 min, a Time (Mus musculus [2]) of 3.1 min and a Time (Mus musculus [3]) of 4.1 min. For the same compound, the Time (Mus musculus [4]) was 13.9 min, the Time (Mus musculus [5]) was 6.7 min and the Time (Mus musculus [6]) was 18.5 min. For the same compound, the Activity (Mus musculus [7]) was “Active”.

`CC1=C(Br)SC2=NC(=O)CCCN21` showed a Time (Mus musculus [4]) of 13.5 min, a Time (Mus musculus [5]) of 5 min and a Time (Mus musculus [6]) of 23.1 min. For the same compound, the Activity (Mus musculus [22]) was 100%, the Activity (Mus musculus [23]) was 100% and the “Ratio TD50/ED50” value (Mus musculus [15]) was 1.51. The ED50 (Mus musculus [16]) was 78 mg/kg, the “Ratio TD50/ED50” value (Mus musculus [17]) was 2.17 and the “Ratio TD50/ED50” value (Mus musculus [18]) was 1.31. For the same compound, the selectivity ratio [19] was 5.71, the Ratio (Mus musculus [20]) was 4 and the Activity (Mus musculus [24]) was “Active”. The Activity (Mus musculus [25]) was “Active”, the Activity (Mus musculus [26]) was “Active” and the Activity (Mus musculus [27]) was “Active”.

For `CC1=C(Sc2ccccc2C(=O)O)SC2=NC(=O)CCCN21`, the Time (Mus musculus [1]) was 1.5 min, the Time (Mus musculus [2]) was 2.8 min and the Time (Mus musculus [3]) was 3.8 min. For the same compound, the Time (Mus musculus [4]) was 7.8 min, the Time (Mus musculus [5]) was 7.3 min and the Time (Mus musculus [6]) was 12.3 min. For the same compound, the Activity (Mus musculus [21]) was “Active”.

`CCOC(=O)C1=C(C)N2CC/C(=C\c3ccc(Br)cc3)C(=O)N=C2S1` gave a Time (Mus musculus [1]) of 7.3 min, a Time (Mus musculus [2]) of 4.1 min and a Time (Mus musculus [3]) of 8.4 min. For the same compound, the Time (Mus musculus [4]) was 8.1 min, the Time (Mus musculus [5]) was 6.1 min and the Time (Mus musculus [6]) was 11.6 min. The Activity (Mus musculus [21]) was “Active”.

For `CC1=CN2CC/C(=C\c3ccc(Br)cc3)C(=O)N=C2S1`, the Time (Mus musculus [1]) was 1.2 min, the Time (Mus musculus [2]) was 2.1 min and the Time (Mus musculus [3]) was 2.6 min. The Time (Mus musculus [4]) was 8 min, the Time (Mus musculus [5]) was 6 min and the Time (Mus musculus [6]) was 14.3 min.
